Data set [1] concerns seizures induced by 6 Hz corneal stimulation in CF1 mice. In words: 6 Hz psychomotor seizure model of partial epilepsy. The format is in vivo, mouse. Details: Epilepsy 6 Hz (% protected): concentration or dose not given beside the values. The note with it: 32 mA. The protocol:
Compounds were evaluated for the protection against seizures induced by a 6 Hz, 0.2 ms rectangular pulse width of 3 s duration, at a stimulus intensity of 32 mA (CC97) applied to the cornea of male CF1 mice (20-30 g) according to procedures described by Barton et al, “Pharmacological Characterization of the 6 Hz Psychomotor Seizure Model of Partial Epilepsy,” Epilepsy Res. 47(3):217-27 (2001). Seizures are characterised by the expression of one or more of the following behaviours: stun, forelimb clonus, twitching of the vibrissae and Straub-tail immediately following electrical stimulation.

Data set [2] has as its system Rat SNL tactile allodynia. In words: L5/L6 spinal nerve ligation (SNL) Chung pain model, tactile allodynia (von Frey). The data set is classed as in vivo. The text has this: The Spinal Nerve Ligation is an animal model representing peripheral nerve injury generating a neuropathic pain syndrome. In this model experimental animals develop the clinical symptoms of tactile allodynia and hyperalgesia. L5/L6 Spinal nerve ligation (SNL) injury was induced using the procedure of Kim and Chung (Kim et al., Pain 50:355-363 (1992)) in male Sprague-Dawley rats (Harlan; Indianapolis, Ind.) weighing 200 to 250 grams.
Anaesthesia was induced with 2% isofluorane in O2 at 2 L/min and maintained with 0.5% isofluorane in O2. Rats were then shaved and aseptically prepared for surgeries. A 2 cm paraspinal incision was made at the level of L4-S2. L4/L5 was exposed by removing the transverse process above the nerves with a small rongeur. The L5 spinal nerve is the larger of the two visible nerves below the transverse process and lies closest to the spine. The L6 spinal nerve is located beneath the corner of the slope bone. A home-made glass Chung rod was used to hook L5 or L6 and a pre-made slip knot of 4.0 silk suture was placed on the tip of the rod just above the nerve and pulled underneath to allow for the tight ligation. The L5 and L6 spinal nerves were tightly ligated distal to the dorsal root ganglion. The incision was closed, and the animals were allowed to recover for 5 days.
Sham control rats underwent the same operation and handling as the experimental animals, but without SNL.
Prior to initiating drug delivery, baseline behavioural testing data is obtained. At selected times after infusion of the Test or Control Article behavioural data can then be collected again.
The assessment of tactile allodynia consisted of measuring the withdrawal threshold of the paw ipsilateral to the site of nerve injury in response to probing with a series of calibrated von Frey filaments (innocuous stimuli). Animals were acclimated to the suspended wire-mesh cages for 30 min before testing. Each von Frey filament was applied perpendicularly to the plantar surface of the ligated paw of rats for 5 sec. A positive response was indicated by a sharp withdrawal of the paw. For rats, the first testing filament is 4.31. Measurements were taken before and after administration of test articles. […] The protocol was repeated until three changes in behaviour were determined (“up and down” method) (Chaplan et al., J. Neurosci. Methods 53:55-63 (1994)). The 50% paw withdrawal threshold was determined as (10^[Xf+kδ])/10,000, where Xf=the value of the last von Frey filament employed, k=Dixon value for the positive/negative pattern, and S=the logarithmic difference between stimuli. The cut-off values for rats were no less than 0.2 g and no higher than 15 g (5.18 filament); for mice no less than 0.03 g and no higher than 2.34 g (4.56 filament). A significant drop of the paw withdrawal threshold compared to the pre-treatment baseline is considered tactile allodynia. […]

Data set [3] deals with Lamina I/II spinal cord neurons. Put plainly: Lamina assay: current-clamp recordings on lamina I/II spinal cord neurons. The data set is classed as cell-based, rat. The note with it: Lamina I and II, tonic firing neurons, current-clamp. The text has this:
Male Wistar rats (P6 to P9 for voltage-clamp and P15 to P18 for current-clamp recordings) were anaesthetized through intraperitoneal injection of Inactin (Sigma). The spinal cord was then rapidly dissected out and placed in an ice-cold solution protective sucrose solution containing (in mM): 50 sucrose, 92 NaCl, 15 D-Glucose, 26 NaHCO3, 5 KCl, 1.25 NaH2PO4, 0.5 CaCl2, 7 MgSO4, 1 kynurenic acid, and bubbled with 5% CO2/95% O2. The meninges, dura, and dorsal and ventral roots were then removed from the lumbar region of the spinal cord under a dissecting microscope. The “cleaned” lumbar region of the spinal cord was glued to the vibratome stage and immediately immersed in ice cold, bubbled, sucrose solution. For current-clamp recordings, 300 to 350 μm parasagittal slices were cut to preserve the dendritic arbour of lamina I neurons, while 350 to 400 μm transverse slices were prepared for voltage-clamped […] channel recordings. Slices were allowed to recover for 1 hour at 35° C. in Ringer solution containing (in mM): 125 NaCl, 20 D-Glucose, 26 NaHCO3, 3 KCl, 1.25 NaH2PO4, 2 CaCl2, 1 MgCl2, 1 kynurenic acid, 0.1 picrotoxin, bubbled with 5% CO2/95% O2. The slice recovery chamber was then returned to room temperature (20 to 22° C.) and all recordings were performed at this temperature.
Neurons were visualized using IR-DIC optics (Zeiss Axioskop 2 FS plus, Gottingen, Germany), and neurons from lamina I and the outer layer of lamina II were selected based on their location relative to the substantia gelatinosa layer. Neurons were patch-clamped using borosilicate glass patch pipettes with resistances of 3 to 6 MΩ. Current-clamp recordings of lamina I/II neurons in the intact slice, the external recording solution was the above Ringer solution, while the internal patch pipette solution contained (in mM): 140 KGluconate, 4 NaCl, 10 HEPES, 1 EGTA, 0.5 MgCl2, 4 MgATP, 0.5 Na2GTP, adjusted to pH 7.2 with 5 M KOH and to 290 mOsm with D-Mannitol (if necessary). Only tonic firing neurons were selected for current-clamp experiments, while phasic, delayed onset and single spike neurons were discarded (22). Recordings were digitized at 50 kHz and low-pass filtered at 2.4 kHz.

The test system of another data set is mice on rotarod. Put plainly: Mouse rotarod assay (minimal muscular or neurological impairment). The format is in vivo. On the procedure:
To assess a compound's undesirable side effects (toxicity), animals were monitored for overt signs of impaired neurological or muscular function. In mice, the rotarod procedure (Dunham and Miya, J. Am. Pharmacol. Assoc. 46:208-209 (1957)) is used to disclose minimal muscular or neurological impairment (MMI). When a mouse is placed on a rod that rotates at a speed of 6 rpm, the animal can maintain its equilibrium for long periods of time. The animal is considered toxic if it falls off this rotating rod three times during a 1-min period.
Background: Falling from the rotarod earlier than controls is read as motor impairment.

A further data set has as its target T1, human Nav1.5 channel (Homo sapiens, UniProt Q14524).
T1 construct: expressed in transfected cells; host or cells: HEK cells
Put plainly: NaV1.5 sodium channel screening assay, PatchXpress automated electrophysiology, cardiac action potential waveform 1 Hz. The data set is classed as cell-based. Conditions: cardiac action potential waveform at 1 Hz; HEK cells; read-out: HNAv 1.5 Cardiac AP 1 Hz IC50. The protocol: Inhibition of the TTX-resistant NaV1.5 sodium channel, a key cardiac ion channel, can have profound effects on the duration and amplitude of the cardiac action potential and can result in arrhythmias and other heart malfunctions. To assess the potential cardiac liability of compounds at an early stage in the drug discovery process, a NaV1.5 sodium channel screening assay is performed on Molecular Device's PatchXpress™ automated electrophysiology platform. Under voltage-calmp conditions, NaV1.5 currents were recorded from HEK cells expressing the human Nav1.5 channel in the absence and presence of increasing concentrations of the test compound to obtain an IC50 value. The external recording solution contained (in mM): 90 TEACl, 50 NaCl, 1.8 CaCl, 1 MgCl2, 10 HEPES, 10 glucose, adjusted to pH 7.4 with TEA-OH and to 300 mOsm with sucrose (if necessary), while the internal patch pipette solution contained (in mM): 129 CsF, 2 MgCl2, 11 EGTA, 10 HEPES, 3 Na2ATP adjusted to pH 7.2 with CsOH and to 290 mOsm with sucrose (if necessary). NaV1.5 channel currents were evoked using a cardiac action potential waveform at 1 Hz, digitized at 31.25 kHz and low-pass filtered at 12 kHz.

Data set [4] can be described thus: Rat Early Pharmacokinetic (EPK) study. The format is in vivo. The note with it: PO, 3 mg/kg, formulation PG (propylene glycol). The protocol: Male Sprague-Dawley rats were dosed via oral (PO) gavage in the detailed formulation. Blood samples were collected from the animals at 6 timepoints out to 4 hours post-dose. Pharmacokinetic analysis was performed on the LC-MS/MS measured concentrations for each timepoint of each compound.

By pIC50 is commonly meant the IC50 on a negative log10 scale, so that one unit is a factor of ten. Usually Tmax stands for the time from dosing to the highest level.

pIC50: −log10 of the molar value.

T1 sequence (Q14524 whole entry): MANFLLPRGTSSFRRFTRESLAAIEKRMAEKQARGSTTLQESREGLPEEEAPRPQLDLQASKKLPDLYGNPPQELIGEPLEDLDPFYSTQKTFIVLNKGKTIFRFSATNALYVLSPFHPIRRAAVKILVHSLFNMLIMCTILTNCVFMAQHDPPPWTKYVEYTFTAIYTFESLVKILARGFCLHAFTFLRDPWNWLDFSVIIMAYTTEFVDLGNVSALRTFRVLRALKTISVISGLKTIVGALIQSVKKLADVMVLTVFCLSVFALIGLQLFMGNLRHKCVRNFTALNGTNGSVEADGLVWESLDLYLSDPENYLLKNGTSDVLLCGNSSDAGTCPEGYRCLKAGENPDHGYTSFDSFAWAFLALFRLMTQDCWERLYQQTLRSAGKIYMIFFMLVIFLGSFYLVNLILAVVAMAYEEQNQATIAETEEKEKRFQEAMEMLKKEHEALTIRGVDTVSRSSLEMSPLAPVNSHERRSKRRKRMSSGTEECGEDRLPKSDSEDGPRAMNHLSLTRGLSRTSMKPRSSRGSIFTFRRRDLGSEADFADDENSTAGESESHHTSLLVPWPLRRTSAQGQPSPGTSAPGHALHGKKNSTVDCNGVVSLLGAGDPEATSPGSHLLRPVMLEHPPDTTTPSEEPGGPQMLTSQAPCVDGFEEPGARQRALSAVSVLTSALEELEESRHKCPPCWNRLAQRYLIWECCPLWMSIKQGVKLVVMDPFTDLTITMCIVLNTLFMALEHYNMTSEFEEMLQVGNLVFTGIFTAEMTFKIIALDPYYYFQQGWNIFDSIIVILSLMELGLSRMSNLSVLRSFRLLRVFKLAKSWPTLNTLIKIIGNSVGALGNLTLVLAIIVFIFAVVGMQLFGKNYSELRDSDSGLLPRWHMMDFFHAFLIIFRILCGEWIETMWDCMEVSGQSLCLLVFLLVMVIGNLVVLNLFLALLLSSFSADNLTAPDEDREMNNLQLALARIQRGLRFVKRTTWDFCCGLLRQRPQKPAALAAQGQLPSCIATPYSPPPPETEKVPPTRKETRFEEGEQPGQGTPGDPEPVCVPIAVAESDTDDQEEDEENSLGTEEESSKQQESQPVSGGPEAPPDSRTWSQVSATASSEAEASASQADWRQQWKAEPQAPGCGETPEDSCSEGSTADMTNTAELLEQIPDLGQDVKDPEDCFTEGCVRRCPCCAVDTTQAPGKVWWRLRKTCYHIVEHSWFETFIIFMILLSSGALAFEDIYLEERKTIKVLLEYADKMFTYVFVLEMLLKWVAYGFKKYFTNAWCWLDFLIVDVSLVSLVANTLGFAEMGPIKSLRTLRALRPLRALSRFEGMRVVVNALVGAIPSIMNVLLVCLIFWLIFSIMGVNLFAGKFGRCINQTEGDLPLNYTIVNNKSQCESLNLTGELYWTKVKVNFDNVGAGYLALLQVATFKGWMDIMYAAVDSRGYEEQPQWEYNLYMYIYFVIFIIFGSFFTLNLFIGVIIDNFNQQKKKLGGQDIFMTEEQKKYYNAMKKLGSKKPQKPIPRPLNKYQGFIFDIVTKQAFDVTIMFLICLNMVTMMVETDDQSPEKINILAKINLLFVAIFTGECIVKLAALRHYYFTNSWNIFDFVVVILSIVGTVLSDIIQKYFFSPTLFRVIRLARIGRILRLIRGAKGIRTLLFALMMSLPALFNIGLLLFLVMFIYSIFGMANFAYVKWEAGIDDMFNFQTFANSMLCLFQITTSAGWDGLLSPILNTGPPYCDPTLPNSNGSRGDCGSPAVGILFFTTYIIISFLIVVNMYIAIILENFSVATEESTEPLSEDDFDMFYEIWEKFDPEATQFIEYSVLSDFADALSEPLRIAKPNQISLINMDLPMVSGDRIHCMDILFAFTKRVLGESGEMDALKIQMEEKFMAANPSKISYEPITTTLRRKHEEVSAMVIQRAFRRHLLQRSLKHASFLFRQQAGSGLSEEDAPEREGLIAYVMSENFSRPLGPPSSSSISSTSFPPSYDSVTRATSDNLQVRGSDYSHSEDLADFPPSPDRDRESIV

Take `O=C(CC1CCNCC1)Nc1cc(C(F)(F)F)cc(C(F)(F)F)c1` [Compound 19, N-(3,5-bis(trifluoromethyl)phenyl)-2-(piperidin-4-yl)acetamide]: the “Epilepsy 6 Hz (% protected)” value came to 100% in data set [1] (0.25 hr); 100% in data set [1] (0.5 hr); 100% in data set [1] (1 hr); 100% in data set [1] (2 hr); 0% in data set [1] (4 hr). Further, the “Rat SNL Tactile Allodynia (% Antiallodynia)” value in data set [2] (1 hour) is 47%; in data set [2] (2 hours), 39%; in data set [2] (4 hours) it was 32%. Further, the “% Spike Change (Mean; % change from control)” value in data set [3] is on record as −30.3%. In addition, the “% Impaired” value with mice on rotarod (0.25 hr) came to 0%; with mice on rotarod (0.5 hr), 75%; in the data set on mice on rotarod (1 hr), 100%; in the data set on mice on rotarod (2 hr) it was 100%; with mice on rotarod (4 hr), 100%.

Take `O=C(CN1CCNCC1)Nc1cc(C(F)(F)F)cc(C(F)(F)F)c1` [Compound 5, N-(3,5-bis(trifluoromethyl)phenyl)-2-(piperazin-1-yl)acetamide]: the pIC50 at human Nav1.5 channel was 4.40. Moreover, in data set [4], the “Dose Normalized AUC” value stood at 108 nM·h and the “Dose Normalized Cmax” value was 48 nM. For the same compound, in data set [4] (male, Sprague-Dawley, blood), the Tmax is 1.8 h.

For the origin of these results see patent US20120220603A1, “SUBSTITUTED HETEROCYCLIC DERIVATIVES FOR THE TREATMENT OF PAIN AND EPILEPSY” (ZALICUS PHARMACEUTICALS LTD., priority 2009, published 2012).
